This is an account of results in patent US10391103B2, “Ferroporphyrin solid dispersion and preparation method thereof” (Sinotherapeutics Inc., priority 2013, dated 2019).

The conditions of series [1]: rats; cited from earlier work.
The nature of series [2]: Stability test for the solid dispersions (content by HPLC).

As for porphyrin iron [API], the absolute oral bioavailability in series [1] is reported as 0.93%. Further, in series [2] (open, 25° C. 60% RH), the “Content, stability study 0 day” value turned out to be 100.9%; the “Content, stability study 1 day” value was found to be 98.0%; the “Content, stability study 3 days” value is on record as 98.7%; the “Content, stability study 7 days” value is 100.9%. For the same substance, in series [2] (open, 25° C. 60% RH), the “Content, stability study 35 days” value amounted to 98.8%. In addition, in series [2] (open, 40° C. 75% RH), the “Content, stability study 0 day” value came to 100.9%; the “Content, stability study 1 day” value was found to be 99.0%; the “Content, stability study 3 days” value was found to be 99.8%; the “Content, stability study 7 days” value was determined as 100.8%. In series [2] (open, 40° C. 75% RH), the “Content, stability study 35 days” value stood at 100.6%. Moreover, in series [2] (sealed, 25° C. 60% RH), the “Content, stability study 0 day” value turned out to be 100.9%; the “Content, stability study 1 day” value was determined as 99.5%; the “Content, stability study 3 days” value was 102.0%; the “Content, stability study 7 days” value is on record as 100.5%. Further, in series [2] (sealed, 25° C. 60% RH), the “Content, stability study 14 days” value was 98.9% and the “Content, stability study 35 days” value came out at 102.2%. Further, in series [2] (sealed, 40° C. 75% RH), the “Content, stability study 0 day” value is given as 100.9%; the “Content, stability study 1 day” value amounted to 99.6%; the “Content, stability study 3 days” value is recorded as 102.7%; the “Content, stability study 7 days” value is on record as 100.8%. Further, in series [2] (sealed, 40° C. 75% RH), the “Content, stability study 14 days” value was 99.2% and the “Content, stability study 35 days” value is recorded as 102.7%.
